# Read-outs that look alike come from different tables or passages of the source.
# Experiments:
# pY705-STAT3 in PBMC = molecular target: T1, pY705-STAT3 in PBMC (Homo sapiens, UniProt P40763); test: MSD-pSTAT-PBMC Assay (pSTAT3, IL-6 stimulated); type: cell-based; conditions: PBMC, compound 3 hrs, then 10 ng/mL IL-6 for 10 min
# T1 construct: Cryopreserved Peripheral Blood Mononuclear Cells (PBMC) are from AllCells; host or cells: cryopreserved PBMC
# In short: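 pY705-STAT3 was detected electrochemiluminescently on total-STAT3 capture plates, using lysates of human PBMCs given compound for 3 h and then IL-6 (10 ng/mL, 10 min). Values were background-subtracted against unstimulated wells and set relative to DMSO. IC50 was fitted with variable slope.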
# pY641-STAT6 in PBMC = molecular target: T2, pY641-STAT6 in PBMC (Homo sapiens, UniProt P42226); test: MSD-pSTAT-PBMC Assay (pSTAT6, IL-4 stimulated); type: cell-based; conditions: compound 3 hrs, then 1 ng/mL IL-4 for 10 min
# T2 construct: Cryopreserved Peripheral Blood Mononuclear Cells (PBMC) are from AllCells; host or cells: cryopreserved PBMC
# T2 sequence (P42226 1-847): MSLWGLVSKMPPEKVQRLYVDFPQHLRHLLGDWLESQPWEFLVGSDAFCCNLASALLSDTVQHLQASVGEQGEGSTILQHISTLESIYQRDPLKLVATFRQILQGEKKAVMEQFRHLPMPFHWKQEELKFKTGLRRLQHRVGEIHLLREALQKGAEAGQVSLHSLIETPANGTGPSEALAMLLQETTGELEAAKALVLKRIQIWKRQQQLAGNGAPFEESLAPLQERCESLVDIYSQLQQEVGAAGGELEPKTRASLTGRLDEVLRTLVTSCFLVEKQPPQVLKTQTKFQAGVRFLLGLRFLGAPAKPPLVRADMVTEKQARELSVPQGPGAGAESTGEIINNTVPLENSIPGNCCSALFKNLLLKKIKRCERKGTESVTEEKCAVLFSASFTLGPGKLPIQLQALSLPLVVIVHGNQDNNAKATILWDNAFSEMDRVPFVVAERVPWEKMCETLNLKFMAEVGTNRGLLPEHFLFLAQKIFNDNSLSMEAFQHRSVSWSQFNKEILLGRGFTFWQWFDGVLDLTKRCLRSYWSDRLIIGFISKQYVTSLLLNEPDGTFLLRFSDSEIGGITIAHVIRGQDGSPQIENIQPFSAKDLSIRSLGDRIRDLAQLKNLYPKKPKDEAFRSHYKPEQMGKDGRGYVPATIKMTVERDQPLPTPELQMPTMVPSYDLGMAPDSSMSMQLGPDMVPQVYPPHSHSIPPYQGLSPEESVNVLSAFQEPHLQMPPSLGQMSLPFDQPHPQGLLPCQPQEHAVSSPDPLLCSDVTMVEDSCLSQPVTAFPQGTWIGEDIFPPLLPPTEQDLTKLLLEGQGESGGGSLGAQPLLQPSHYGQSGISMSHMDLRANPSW
# In short: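 PBMC (human, cryopreserved, overnight recovery) + cpd 3 hrs → IL-6 10 ng/mL (STAT3) or IL-4 1 ng/mL (STAT6) ×10 min → lysis with protease/phosphatase inhibitors → MSD capture/phospho detection. IC50, variable slope, DMSO-normalized.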
# [1] = PBMC, Table 1114, read-out: pSTAT6
# [2] = PBMC, Table 115, read-out: STAT6
# T1 sequence (P40763 whole entry): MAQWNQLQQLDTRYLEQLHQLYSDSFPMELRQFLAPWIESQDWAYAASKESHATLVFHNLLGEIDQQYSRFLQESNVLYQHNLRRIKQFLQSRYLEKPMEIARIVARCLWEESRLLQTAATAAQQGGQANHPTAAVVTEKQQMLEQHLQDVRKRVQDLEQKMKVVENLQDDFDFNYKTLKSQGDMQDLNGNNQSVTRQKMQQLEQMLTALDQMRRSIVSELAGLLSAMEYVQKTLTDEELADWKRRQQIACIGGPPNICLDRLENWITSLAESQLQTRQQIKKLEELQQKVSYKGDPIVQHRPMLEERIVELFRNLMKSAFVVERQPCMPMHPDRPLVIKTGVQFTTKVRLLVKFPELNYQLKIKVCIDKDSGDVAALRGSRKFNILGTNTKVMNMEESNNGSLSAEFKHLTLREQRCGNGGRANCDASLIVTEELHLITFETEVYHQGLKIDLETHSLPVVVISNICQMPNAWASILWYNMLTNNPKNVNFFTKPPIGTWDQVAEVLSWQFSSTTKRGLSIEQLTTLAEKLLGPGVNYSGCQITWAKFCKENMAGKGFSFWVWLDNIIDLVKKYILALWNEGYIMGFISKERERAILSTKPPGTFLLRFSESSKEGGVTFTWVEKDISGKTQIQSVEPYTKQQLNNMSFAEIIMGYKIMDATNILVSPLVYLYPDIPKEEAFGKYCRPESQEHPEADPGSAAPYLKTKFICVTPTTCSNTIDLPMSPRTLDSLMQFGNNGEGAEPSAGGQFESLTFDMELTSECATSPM
"IC50 (pY705-STAT3 in PBMC; Table 1114, read-out: pSTAT3) [nM]","IC50 (pY705-STAT3 in PBMC; Table 115, read-out: STAT3) [nM]",IC50 (pY641-STAT6 in PBMC; [1]) [nM],IC50 (pY641-STAT6 in PBMC; [2]) [nM],Compound,other results
100 to 1000,–,< 100,–,"CC(C)(C)C(=O)OCOP(=O)(OCOC(=O)C(C)(C)C)C(F)(F)c1ccc2sc(C(=O)N[C@H]3C[C@@H](O)CC[C@H]4CC[C@@H](C(=O)N5C[C@H](c6ccccc6)[C@@H](C#N)C5)N4C3=O)cc2c1 (single isomer, unassigned) [Compound 185, ((((2-(((3S,6S,8S, 10aR)-3-((3R,4S or 3S,4R)-3-cyano-4-phenyl-pyrrolidine-1-carbonyl)-8-hydroxy-5-oxodeca-hydropyrrolo [1,2-a]azocin-6-yl)carbamoyl)benzo[b]thiophen-5-yl)difluoro-methyl)phos-phoryl)bis(oxy)) bis(methylene) bis(2,2-dimethyl-propanoate)]",–
–,100 to 1000,–,< 100,"CC(C)CC(=O)SCCOP(=O)(OCOC(=O)OC1CCOCC1)C(F)(F)c1ccc2sc(C(=O)N[C@H]3CCCC[C@H]4CC[C@@H](C(=O)N5C[C@H](c6cc[nH]c(=O)c6)[C@@H](C#N)C5)N4C3=O)cc2c1 (single isomer, unassigned) [Compound 1085]",–
> 3000,–,> 3000,–,"CC(C)(C)C(=O)SCCOP(=O)(Cc1ccc2sc(C(=O)N[C@H]3CCCC[C@H]4CC[C@@H](C(=O)N5C[C@@H](C#N)[C@H](c6ccccc6)C5)N4C3=O)cc2c1)OCCSC(=O)C(C)(C)C (single isomer, unassigned) [Compound 149, S,S′-(((((2-(((3S,6S,10aS)-3-((3S,4R or 3R,4S)-3-cyano-4-phenylpyrrolidine-1-carbonyl)-5-oxodecahydro-pyrrolo[1,2-a]azocin-6-yl)carbamoyl)benzo[b]thiophen-5-yl)methyl)phosphoryl)bis (oxy))bis(ethane-2,1-diyl))bis(2,2-dimethyl-propanethioate)]",–
1000 to 3000,–,100 to 1000,–,"CCCC(=O)SCCOP(=O)(OCCSC(=O)CCC)C(F)(F)c1ccc2sc(C(=O)N[C@H]3CCCC[C@H]4CC[C@@H](C(=O)N5C[C@@H](C#N)[C@H](c6ccccc6)C5)N4C3=O)cc2c1 (single isomer, unassigned) [Compound 152, S,S′-(((((2-(((3S,6S,10aS)-3-((3S,4R or 3R,4S)-3-cyano-4-phenylpyrrolidine-1-carbonyl)-5-oxodecahydro-pyrrolo[1,2-a]azocin-6-yl)carbamoyl)benzo[b]thiophen-5-yl)difluoromethyl)phosphoryl)bis(oxy))bis(ethane-2,1-diyl)) dibutanethioate]",–
100 to 1000,–,< 100,–,"CC(C)CC(=O)SCCOP(=O)(OCCSC(=O)CC(C)C)C(F)(F)c1ccc2ccc(C(=O)N[C@H]3CCCC[C@H]4CC[C@@H](C(=O)N5C[C@@H](C#N)[C@H](c6cc[nH]c(=O)c6)C5)N4C3=O)cc2c1 (single isomer, unassigned) [Compound 168, S,S′-(((((7-(((3S,6S,10aS)-3-((3S,4R or 3R,4S)-3-cyano-4-(2-oxo-1,2-dihydropyridin-4-yl)pyrrolidine-1-carbonyl)-5-oxodecahydropyrrolo [1,2-a]azocin-6-yl)carbamoyl)naphthalen-2-yl)difluoromethyl)phosphoryl)bis(oxy))bis(ethane-2,1-diyl)) bis(3-methylbutane thioate)]",–
–,< 100,–,> 3000,"CC(C)(C)C(=O)SCCOP(=O)(OCCSC(=O)C(C)(C)C)C(F)c1ccc2sc(C(=O)N[C@H]3CCC[C@H]4CC[C@@H](C(=O)N5CC(c6cnccc6F)C5)N4C3=O)cc2c1 (stereo partly drawn) [Compound 984, S,S′-((((fluoro(2-(((3S,6S,9aS)-3-(3-(4-fluoropyridin-3-yl)azetidine-1-carbonyl)-5-oxooctahydro-1H-pyrrolo[1,2-a]azepin-6-yl)carbamoyl)benzo [b]thiophen-5-yl)methyl)phosphoryl)bis(oxy))bis(ethane-2,1-diyl))bis(2,2-dimethyl-propanethioate)]",–
< 100,–,1000 to 3000,–,"CC(C)(C)C(=O)SCCOP(=O)(OCCSC(=O)C(C)(C)C)C(F)(F)c1ccc2sc(C(=O)N[C@H]3CCCC[C@H]4CC[C@@H](C(=O)N5CC(c6c[nH]cn6)C5)N4C3=O)cc2c1 [Compound 182, S,S′-(((3S,6S,10aS)-3-(3-(1H-imidazol-4-yl)azetidine-1-carbonyl)-5-oxodecahydropyrrolo [1,2-a]azocin-6-yl)carbamoyl)benzo[b] thiophen-5-yl) difluoromethyl) phosphoryl)bis(oxy)) bis(ethane-2,1-diyl)) bis(2,2-dimethylpropanethioate)]",–

# Further lines, the compound ahead of its results:
Compound,"IC50 (pY705-STAT3 in PBMC; Table 1114, read-out: pSTAT3) [nM]","IC50 (pY705-STAT3 in PBMC; Table 115, read-out: STAT3) [nM]",IC50 (pY641-STAT6 in PBMC; [1]) [nM],IC50 (pY641-STAT6 in PBMC; [2]) [nM],other results
"CC(C)(C)C(=O)SCCOP(=O)(Oc1cccc(C#N)c1)C(F)(F)c1ccc2sc(C(=O)N[C@H]3CCCC[C@H]4CC[C@@H](C(=O)N5C[C@@H](C#N)[C@H](c6ccccc6)C5)N4C3=O)cc2c1 (single isomer, unassigned) [Compound 137, S-(2-((((2-(((3S,6S,10aS)-3-((3S,4R or 3R,4S)-3-cyano-4-phenylpyrrolidine-1-carbonyl)-5-oxodecahydro-pyrrolo[1,2-a]azocin-6-yl)carbamoyl)benzo[b]thiophen-5-yl)difluoromethyl)(3-cyanophenoxy)phosphoryl)oxy)ethyl)-2,2-dimethylpropane-thioate]",> 3000,–,–,–,"IC50 (pY641-STAT6 in PBMC; pSTAT6, PBMC, Table 1114): 100 to 1000 nM"
"CCCCOC(=O)[C@H](C)NP(=O)(Oc1cccc2ccccc12)C(F)(F)c1ccc2ccc(C(=O)N[C@H]3CCCC[C@H]4CC[C@@H](C(=O)N5CC(c6ccccc6)CC56CC6)N4C3=O)cc2c1 (stereo partly drawn) [Compound 406, butyl ((difluoro(7-(((3S,6S,10aS)-5-oxo-3-(6-phenyl-4-azaspiro[2.4]heptane-4-carbonyl)decahydropyrrolo[1,2-a]azocin-6-yl)carbamoyl)naphthalen-2-yl)methyl) (naphthalen-1-yloxy)phosphoryl)-L-alaninate]",–,> 3000,–,–,"IC50 (pY641-STAT6 in PBMC; STAT6, PBMC, Table 115): 1000 to 3000 nM"
"CC(C)OC(=O)OCOP(=O)(OCOC(=O)OC(C)C)C(F)(F)c1ccc2ccc(C(=O)N[C@H]3CCCC[C@H]4CC[C@@H](C(=O)N5C[C@@H](C#N)[C@H](c6cc[nH]c(=O)c6)C5)N4C3=O)cc2c1 (single isomer, unassigned) [Compound 1088]",–,1000 to 3000,–,< 100,–
"CC(C)CC(=O)SCCOP(=O)(OCCSC(=O)CC(C)C)C(F)(F)c1ccc2ccc(C(=O)N[C@H]3CCCC[C@H]4CC[C@@H](C(=O)N5CC(n6ccnn6)[C@H](O)C5)N4C3=O)cc2c1 (relative stereo) [Compound 1086, S,S′-((((difluoro(7-(((3S,6S,10aS)-3-((rel-trans)-3-hydroxy-4-(1H-1,2,3-triazol-1-yl)pyrrolidine-1-carbonyl)-5-oxodecahydro-pyrrolo [1,2-a]azocin-6-yl)carbamoyl)naphthalen-2-yl)methyl)phosphoryl)bis(oxy))bis(ethane-2,1-diyl)) bis(3-methylbutanethioate)]",–,< 100,–,100 to 1000,–
"CC(C)(CO)C(=O)SCCOP(=O)(Cc1ccc2sc(C(=O)NC3CCCCC4CCC(C(=O)N5CC(C#N)C(c6ccccc6)C5)N4C3=O)cc2c1)OCCSC(=O)C(C)(C)CO (single isomer, unassigned) [Compound 199, S,S′-(((((2-(((3S,6S,10aS)-3-((3S,4R or 3R,4S)-3-cyano-4-phenylpyrrolidine-1-carbonyl)-5-oxodecahydropyrrolo[1,2-a]azocin-6-yl)carbamoyl)benzo[b]thiophen-5-yl)methyl)phosphoryl)bis(oxy))bis(ethane-2,1-diyl))bis(3-hydroxy-2,2-dimethylpropanethioate)trifluoroacetate]",> 3000,–,> 3000,–,–
"CCCC(=O)SCCOP(=O)(OCCSC(=O)CCC)C(F)(F)c1ccc2sc(C(=O)NC3CCCC4CCC(C(=O)N5CC(c6cccnc6)C5)N4C3=O)cc2c1 [Compound 179, S,S′-((((difluoro(2-(((3S,6S,9aS)-5-oxo-3-(3-(pyridin-3-yl)azetidine-1-carbonyl)octahydro-1H-pyrrolo[1,2-a]azepin-6-yl)carbamoyl)benzo[b]thiophen-5-yl)methyl)phosphoryl)bis(oxy))bis(ethane-2,1-diyl)) dibutanethioate]",< 100,–,1000 to 3000,–,–
